# Measured values from US20200079793A1, “COMPOUNDS AND METHODS FOR MODULATING ADENOSINE A2B RECEPTOR AND ADENOSINE A2A RECEPTOR” (CORVUS PHARMACEUTICALS, INC., priority 2018, published 2020).
# Experiments:
# Adenosine A2B Receptor = biological target: T1, Adenosine A2B Receptor (Homo sapiens, UniProt P29275); assay: Activity assay of adenosine receptor modulators, Adenosine A2B Receptor (Table 1); format: biochemical; conditions: cAMP; read-out: A2BR cAMP IC50
# T1 sequence (P29275 1-332): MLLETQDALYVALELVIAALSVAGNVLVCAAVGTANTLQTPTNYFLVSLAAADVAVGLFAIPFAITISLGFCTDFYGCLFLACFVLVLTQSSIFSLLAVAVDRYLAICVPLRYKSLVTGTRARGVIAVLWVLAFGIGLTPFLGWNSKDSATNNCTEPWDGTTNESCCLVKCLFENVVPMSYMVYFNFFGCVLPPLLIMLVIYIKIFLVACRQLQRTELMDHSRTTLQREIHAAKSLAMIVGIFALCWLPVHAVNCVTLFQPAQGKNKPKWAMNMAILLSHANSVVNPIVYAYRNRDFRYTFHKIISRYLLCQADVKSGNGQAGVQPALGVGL
# Method: (§1) Compounds (e.g., adenosine receptor modulators) were tested for its biological activity. The assay results in Table 1 indicate (+ means >1 μM; ++ means 100 nM to 1 μM; +++ means <100 nM).
# Adenosine A2A Receptor = Adenosine A2A Receptor (Homo sapiens, UniProt P29274); assay: Activity assay of adenosine receptor modulators, Adenosine A2A Receptor (Table 1); format: biochemical; conditions: cAMP; read-out: A2AR cAMP IC50
# Sequence of Adenosine A2A Receptor (P29274 whole entry): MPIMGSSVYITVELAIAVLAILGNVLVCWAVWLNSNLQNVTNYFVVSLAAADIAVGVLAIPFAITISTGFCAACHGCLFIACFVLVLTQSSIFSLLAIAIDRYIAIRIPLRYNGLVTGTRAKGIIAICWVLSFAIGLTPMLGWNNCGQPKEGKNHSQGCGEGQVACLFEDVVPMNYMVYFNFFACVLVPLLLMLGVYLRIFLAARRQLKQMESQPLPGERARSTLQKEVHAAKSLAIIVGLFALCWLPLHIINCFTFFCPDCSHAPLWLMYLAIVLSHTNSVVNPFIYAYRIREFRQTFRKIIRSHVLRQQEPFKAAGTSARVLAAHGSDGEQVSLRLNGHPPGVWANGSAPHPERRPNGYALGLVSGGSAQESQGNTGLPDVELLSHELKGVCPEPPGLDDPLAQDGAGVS
# Method: as §1
# A1R = biological target: T2, A1R (Homo sapiens, UniProt P30542); assay: Activity assay of adenosine receptor modulators, A1R cAMP (Table 1); format: cell-based
# T2 sequence (P30542 1-326): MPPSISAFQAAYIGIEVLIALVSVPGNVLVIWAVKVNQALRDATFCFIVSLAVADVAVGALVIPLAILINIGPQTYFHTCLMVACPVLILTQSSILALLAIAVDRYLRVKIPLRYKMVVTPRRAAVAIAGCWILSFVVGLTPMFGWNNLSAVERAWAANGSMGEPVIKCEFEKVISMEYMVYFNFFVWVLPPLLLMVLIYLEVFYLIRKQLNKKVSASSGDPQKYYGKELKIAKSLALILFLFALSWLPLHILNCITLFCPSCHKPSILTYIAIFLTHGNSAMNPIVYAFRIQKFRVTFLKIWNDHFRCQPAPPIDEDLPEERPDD
# Method: as §1
# A3R = biological target: T3, A3R (Homo sapiens, UniProt P0DMS8); assay: Activity assay of adenosine receptor modulators, A3R cAMP (Table 1); format: cell-based
# T3 sequence (P0DMS8 1-318): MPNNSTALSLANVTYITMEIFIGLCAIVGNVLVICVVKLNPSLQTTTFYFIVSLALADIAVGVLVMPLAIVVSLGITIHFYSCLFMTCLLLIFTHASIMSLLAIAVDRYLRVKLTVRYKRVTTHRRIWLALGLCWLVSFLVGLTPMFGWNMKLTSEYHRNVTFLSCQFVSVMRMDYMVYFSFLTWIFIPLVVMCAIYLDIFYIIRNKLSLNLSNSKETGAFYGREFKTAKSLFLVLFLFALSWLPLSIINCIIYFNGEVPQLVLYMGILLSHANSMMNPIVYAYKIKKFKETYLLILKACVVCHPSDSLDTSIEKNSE
# Method: as §1
IC50 (Adenosine A2B Receptor) [nM],IC50 (Adenosine A2A Receptor) [nM],IC50 (A1R) [nM],IC50 (A3R) [nM],Structure (SMILES)
100 to 1000,< 100,> 1000,100 to 1000,"Cc1nc2nc(N[C@@H](C)c3cncc(F)c3)nc(C(=O)N3CC(NC(=O)Nc4ccccc4)C3)c2s1 [Example 65, (S)-1-(1-(5-((1-(5-Fluoropyridin-3-yl)ethyl)amino)-2-methylthiazolo[4,5-d]pyrimidine-7-carbonyl)azetidin-3-yl)-3-phenylurea]"
< 100,< 100,> 1000,< 100,"Cc1nc2nc(N[C@@H](C)c3cncc(F)c3)nc(C(=O)N3CC(NC(=O)C45CCC(CC4)CC5)C3)c2s1 [Example 67, (S)—N-(1-(5-((1-(5-Fluoropyridin-3-yl)ethyl)amino)-2-methylthiazolo[4,5-d]pyrimidine-7-carbonyl)azetidin-3-yl)bicyclo[2.2.2]octane-1-carboxamide]"
100 to 1000,< 100,> 1000,100 to 1000,"Cc1nc2nc(N[C@@H](C)c3cncc(F)c3)nc(C(=O)N3CC(NC(=O)C4CCOCC4)C3)c2s1 [Example 68, (S)—N-(1-(5-((1-(5-Fluoropyridin-3-yl)ethyl)amino)-2-methylthiazolo[4,5-d]pyrimidine-7-carbonyl)azetidin-3-yl)tetrahydro-2H-pyran-4-carboxamide]"
100 to 1000,< 100,> 1000,100 to 1000,"Cc1nc2nc(N[C@@H](C)c3cncc(F)c3)nc(C(=O)N3CC(NC(=O)C4CC(F)(F)C4)C3)c2s1 [Example 69, (S)-3,3-Difluoro-N-(1-(5-((1-(5-fluoropyridin-3-yl)ethyl)amino)-2-methylthiazolo[4,5-d]pyrimidine-7-carbonyl)azetidin-3-yl)cyclobutane-1-carboxamide]"
< 100,< 100,> 1000,100 to 1000,"Cc1nc2nc(N[C@@H](C)c3cncc(F)c3)nc(C(=O)N3CC(NC(=O)C4(C(F)(F)F)CC4)C3)c2s1 [Example 70, (S)—N-(1-(5-((1-(5-Fluoropyridin-3-yl)ethyl)amino)-2-methylthiazolo[4,5-d]pyrimidine-7-carbonyl)azetidin-3-yl)-1-(trifluoromethyl)cyclopropane-1-carboxamide]"
< 100,< 100,> 1000,100 to 1000,"COc1cccc(C(=O)NC2CN(C(=O)c3nc(N[C@@H](C)c4cncc(F)c4)nc4nc(C)sc34)C2)c1 [Example 71, (S)—N-(1-(5-((1-(5-Fluoropyridin-3-yl)ethyl)amino)-2-methylthiazolo[4,5-d]pyrimidine-7-carbonyl)azetidin-3-yl)-3-methoxybenzamide]"
100 to 1000,< 100,> 1000,100 to 1000,"Cc1nc2nc(N[C@@H](C)c3cncc(F)c3)nc(C(=O)N3CC(NC(=O)c4ccoc4)C3)c2s1 [Example 72, (S)—N-(1-(5-((1-(5-Fluoropyridin-3-yl)ethyl)amino)-2-methylthiazolo[4,5-d]pyrimidine-7-carbonyl)azetidin-3-yl)furan-3-carboxamide]"
100 to 1000,< 100,> 1000,100 to 1000,"Cc1nc2nc(N[C@@H](C)c3cccnc3)nc(C(=O)N3CC(NC(=O)c4ccccc4)C3)c2s1 [Example 73, N-[1-[2-Methyl-5-[[(S)-1-(3-pyridyl)ethyl]amino]thiazolo[4,5-d]pyrimidine-7-carbonyl]azetidin-3-yl]benzamide]"
100 to 1000,< 100,> 1000,> 1000,"Cc1nc2nc(N[C@@H](C)c3cccnc3)nc(C(=O)N3CC(NC(=O)c4cccc(F)c4)C3)c2s1 [Example 74, 3-Fluoro-N-[1-[2-methyl-5-[[(S)-1-(3-pyridyl)ethyl]amino]thiazolo[4,5-d]pyrimidine-7-carbonyl]azetidin-3-yl]benzamide]"
100 to 1000,< 100,> 1000,> 1000,"Cc1nc2nc(N[C@@H](C)c3cccnc3)nc(C(=O)N3CC(NC(=O)C4CCC4)C3)c2s1 [Example 75, N-[1-[2-Methyl-5-[[(S)-1-(3-pyridyl)ethyl]amino]thiazolo[4,5-d]pyrimidine-7-carbonyl]azetidin-3-yl]cyclobutanecarboxamide]"
100 to 1000,< 100,> 1000,100 to 1000,"Cc1nc2nc(N[C@@H](C)c3cccnc3)nc(C(=O)N3CC(NC(=O)C4(C)CC4)C3)c2s1 [Example 76, 1-Methyl-N-[1-[2-methyl-5-[[(S)-1-(3-pyridyl)ethyl]amino]thiazolo[4,5-d]pyrimidine-7-carbonyl]azetidin-3-yl]cyclopropanecarboxamide]"
< 100,< 100,> 1000,100 to 1000,"Cc1nc2nc(N[C@@H](C)c3cccnc3)nc(C(=O)N3CC(NC(=O)C45CC6CC(CC(C6)C4)C5)C3)c2s1 [Example 77, N-[1-[2-Methyl-5-[[(S)-1-(3-pyridyl)ethyl]amino]thiazolo[4,5-d]pyrimidine-7-carbonyl]azetidin-3-yl]adamantane-1-carboxamide]"
100 to 1000,< 100,> 1000,> 1000,"Cc1nc2nc(N[C@@H](C)c3ccccn3)nc(C(=O)N3CC(NC(=O)Nc4ccccc4)C3)c2s1 [Example 78, 1-[1-[2-Methyl-5-[[(S)-1-(2-pyridyl)ethyl]amino]thiazolo[4,5-d]pyrimidine-7-carbonyl]azetidin-3-yl]-3-phenyl-urea]"
< 100,< 100,> 1000,100 to 1000,"Cc1nc2nc(N[C@@H](C)c3cccnc3)nc(C(=O)N3CC(NC(=O)NC4CCCC4)C3)c2s1 [Example 79, 1-Cyclopentyl-3-[1-[2-methyl-5-[[(S)-1-(3-pyridyl)ethyl]amino]thiazolo[4,5-d]pyrimidine-7-carbonyl]azetidin-3-yl]urea]"
100 to 1000,< 100,> 1000,> 1000,"Cc1nc2nc(N[C@@H](C)c3cccnc3)nc(C(=O)N3CC(NC(=O)c4ccoc4)C3)c2s1 [Example 80, N-[1-[2-Methyl-5-[[(S)-1-(3-pyridyl)ethyl]amino]thiazolo[4,5-d]pyrimidine-7-carbonyl]azetidin-3-yl]furan-3-carboxamide]"
< 100,< 100,> 1000,100 to 1000,"Cc1nc2nc(N[C@@H](C)c3cccnc3)nc(C(=O)N3CC(NC(=O)C4CCCCC4)C3)c2s1 [Example 81, N-[1-[2-Methyl-5-[[(S)-1-(3-pyridyl)ethyl]amino]thiazolo[4,5-d]pyrimidine-7-carbonyl]azetidin-3-yl]cyclohexanecarboxamide]"
100 to 1000,< 100,> 1000,> 1000,"Cc1nc2nc(N[C@@H](C)c3cccnc3)nc(C(=O)N3CC(NC(=O)C4CCOCC4)C3)c2s1 [Example 82, N-[1-[2-Methyl-5-[[(S)-1-(3-pyridyl)ethyl]amino]thiazolo[4,5-d]pyrimidine-7-carbonyl]azetidin-3-yl]tetrahydropyran-4-carboxamide]"
< 100,< 100,> 1000,> 1000,"Cc1cc(C)cc(C(=O)NC2CN(C(=O)c3nc(N[C@@H](C)c4cccnc4)nc4nc(C)sc34)C2)c1 [Example 83, 3,5-Dimethyl-N-[1-[2-methyl-5-[[(S)-1-(3-pyridyl)ethyl]amino]thiazolo[4,5-d]pyrimidine-7-carbonyl]azetidin-3-yl]benzamide]"
